{"source": "patent US11304943B2", "about": "“Combination for use in the treatment of lung cancer” (LDN Pharma Limited, priority 2017, dated 2022)", "key": {"A549 (lung cancer) cells": {"tested_on": "A549 (lung cancer) cells", "test": "Cell counting with trypan blue (cell number / cytostasis and cell viability) in A549 cells", "format": "cell-based", "method": "The cytostatic effect upon administration of 6-β-naltrexol (6BN) and naltrexone (NTX) to A549 (lung cancer) and HCT116 (colorectal cancer) cells was studied in vitro. Firstly, A549 and HCT116 cells were seeded into 6-well plates at a density of 2×10^5/well and left to adhere overnight. Cells were then cultured with 0.001 μM, 0.01 μM, 0.1 μM or 1 μM of 6BN or NTX for 48 hours. Experiments were performed alongside a control where cells were not administered with 6-β-naltrexol or naltrexone (FIG. 1).\nThe viability of cells was then measured by cell counting using trypan blue as a way of discriminating live and dead cells. Cytostasis was indicated by a reduction in cell number and no associated reduction in cell viability.\nNext, the effect of co-administration of low dose (10 nM) or high dose (10 μM) 6-β-naltrexol or naltrexone (NTX) alongside calcitriol was investigated. The cytostatic and cytotoxic effect was investigated in both A549 and HCT116 cells. A549 and HCT116 cells were seeded into 6-well plates at a density of 2×10^5/well and left to adhere overnight. The following day low or high dose 6BN or NTX was added to cells in isolation or in combination with calcitriol and incubated for 48 hours. A549 cells were co-administered with 10 nM calcitriol, whereas HCCT116 cells were co-administered 10 nM calcitriol.\nCell viability and cytostasis were then determined as described in example 1."}, "[1]": {"tested_on": "HCT116 (colorectal cancer) cells", "test": "Cell counting with trypan blue (cell number / cytostasis and cell viability) in HCT116 cells", "format": "cell-based", "conditions": "48 hours"}}, "data": [{"smiles": "Oc1ccc2c3c1OC1[C@H](O)CC[C@@]4(O)[C@@H](C2)N(CC2CC2)CC[C@]314", "note": "(stereo partly drawn) [6-β-naltrexol, 17-(Cyclopropylmethyl)-4,5-epoxymorphinan-3,6beta,14-triol]", "values": [{"measurement": "cytostasis (cell number) upon co-administration with calcitriol", "setting": "A549 (lung cancer) cells; A549 cells, 10 nM 6BN co-administered with calcitriol, 48 hours", "result": "significant reduction in cytostasis"}, {"measurement": "cytostasis (cell number) upon co-administration with calcitriol", "setting": "A549 (lung cancer) cells; A549 cells, 10 μM 6BN co-administered with calcitriol, 48 hours", "result": "not observed"}, {"measurement": "cell viability", "setting": "A549 (lung cancer) cells; A549 cells, 0.001-1 μM, 48 hours, trypan blue", "result": "No reduction in cell viability"}, {"measurement": "cytostasis (cell number)", "setting": "A549 (lung cancer) cells; A549 lung cancer cells, 0.001-1 μM, 48 hours, single agent", "result": "selective reduction in cytotostasis in lung cancer cells"}, {"measurement": "cytostasis (cell number) upon co-administration with calcitriol", "setting": "[1]; HCT116 cells, 10 nM 6BN co-administered with calcitriol", "result": "not observed"}, {"measurement": "cell viability", "setting": "[1]; HCT116 cells, 0.001-1 μM, trypan blue", "result": "No reduction in cell viability"}, {"measurement": "cytostasis (cell number)", "setting": "[1]; HCT116 colorectal cancer cells, 0.001-1 μM, single agent, effect at higher concentrations", "result": "less pronounced decrease in cytotostasis"}]}, {"smiles": "C=C1/C(=C\\C=C2/CCC[C@]3(C)[C@@H]([C@H](C)CCCC(C)(C)O)CC[C@@H]23)C[C@@H](O)C[C@@H]1O", "note": "[Calcitriol, calcitriol, reference compound]", "values": [{"measurement": "cytostatic effect of calcitriol in isolation", "setting": "A549 (lung cancer) cells; lung cancer cells, calcitriol administered in isolation", "result": "no independent cytostatic effect"}]}, {"smiles": "O=C1CC[C@@]2(O)[C@H]3Cc4ccc(O)c5c4[C@@]2(CCN3CC2CC2)[C@H]1O5", "note": "[NTX, naltrexone, reference compound]", "values": [{"measurement": "cell viability upon combination with calcitriol", "setting": "[1]; HCT116 cells, 10 nM NTX with 100 nM calcitriol", "result": "reduces the viability"}]}]}
